The nature of series [1]: Stability in GSH environment. The series is classed as physicochemical. The conditions noted are these: 20 mM GSH, pH 7.4 phosphate buffer, 37 °C.
The conditions of series [2]: for decomposition in SGF: 37 °C, within 120 min.
A short description of series [3]: Transmission electron microscopy. Format: physicochemical. The conditions noted are these: for micelle formation (TEM): 50.0 μM, pH 7.4 phosphate buffer.
Another series relates to AdV5. Format: cell-based, adenovirus (AdV) 5. The conditions noted are these: A549 cells.

The values that follow come from paper PMC10290961 (European Journal of Medicinal Chemistry, 2023).

In the case of `CCCCCCCCCCCCCCSSCCCOP(=O)(O)CO[C@H](CO)Cn1ccc(N)nc1=O.N` [Compound 1h, 3-(tetradecyldisulfanyl)propyl hydrogen ((((S)-1-(4-amino-2-oxopyrimidin-1(2H)-yl)-3-hydroxypropan-2-yl)oxy)methyl)phosphonate], in series [1], the “stability in GSH environment relative to 1c” value is listed as “significant enhancement in stability”.

For the molecule `CCCCCCCCSSCCCCCCOP(=O)(O)CO[C@H](CO)Cn1ccc(N)nc1=O.N` [Compound 1o, 6-(octyldisulfanyl)hexyl hydrogen ((((S)-1-(4-amino-2-oxopyrimidin-1(2H)-yl)-3-hydroxypropan-2-yl)oxy)methyl)phosphonate], the “TI (therapeutic index, CC50/IC50)” value in the series with VACV is recorded as above 4.

Take `CCCCCCCCCCCCCCSSCCOP(=O)(O)CO[C@H](CO)Cn1ccc(N)nc1=O.N` [Compound 1c, 2-(tetradecyldisulfanyl)ethyl hydrogen ((((S)-1-(4-amino-2-oxopyrimidin-1(2H)-yl)-3-hydroxypropan-2-yl)oxy)methyl)phosphonate]: in series [2] (SGF pH 2.0, 37 °C, after 120 min), the “remaining in SGF” value is given as “approximately 77%”. In addition, in the series with VACV, the “fold TI relative to BCV” value worked out at 2.8 fold. Further, the “remaining after incubation with GSH” value in series [1] (after 360 min) was “approximately 13%”. Further, the “micelle formation (TEM)” value in series [3] is recorded as “could form micelles”.

Consider `CCCCCCCCCCCCCCCCCCSSCCOP(=O)(O)CO[C@H](CO)Cn1ccc(N)nc1=O.N` [Compound 1e, 2-(octadecyldisulfanyl)ethyl hydrogen ((((S)-1-(4-amino-2-oxopyrimidin-1(2H)-yl)-3-hydroxypropan-2-yl)oxy)methyl)phosphonate], for which, in series [1], the “stability in GSH environment relative to 1c” value was “significant enhancement in stability”. Further, in series [3], the “micelle formation (TEM)” value was “could form micelles”. The “stability of micelles in GSH environment (TEM)” value in series [3] (incubated for 4 h in GSH environment) was “could keep stable”.

For `CCCCCCCCCCCCCCCCSSCCCCOP(=O)(O)CO[C@H](CO)Cn1ccc(N)nc1=O.N` [Compound 1n, 4-(hexadecyldisulfanyl)butyl hydrogen ((((S)-1-(4-amino-2-oxopyrimidin-1(2H)-yl)-3-hydroxypropan-2-yl)oxy)methyl)phosphonate], the “decomposition in SGF” value in series [2] is on record as “not decomposed”. Further, the “micelle formation (TEM)” value in series [3] was “could form micelles”.

Consider `CCCCCCCCCCCCSSCCCCCCOP(=O)(O)CO[C@H](CO)Cn1ccc(N)nc1=O.N` [Compound 1q, 6-(dodecyldisulfanyl)hexyl hydrogen ((((S)-1-(4-amino-2-oxopyrimidin-1(2H)-yl)-3-hydroxypropan-2-yl)oxy)methyl)phosphonate], for which the “decomposition in SGF” value in series [2] was “not decomposed”. Further, in the series on AdV5, the “fold increase in TI value compared to BCV (anti-AdV5)” value came to 8.9 fold.

For `CCCCCCCCCCCCCCSSCCCCOP(=O)(O)CO[C@H](CO)Cn1ccc(N)nc1=O.N` [Compound 1m, 4-(tetradecyldisulfanyl)butyl hydrogen ((((S)-1-(4-amino-2-oxopyrimidin-1(2H)-yl)-3-hydroxypropan-2-yl)oxy)methyl)phosphonate], the “stability in GSH environment relative to 1c” value in series [1] is reported as “significant enhancement in stability”.

As for `CCCCCCCCCCCCCCCCSSCCOP(=O)(O)CO[C@H](CO)Cn1ccc(N)nc1=O.N` [Compound 1d, 2-(hexadecyldisulfanyl)ethyl hydrogen ((((S)-1-(4-amino-2-oxopyrimidin-1(2H)-yl)-3-hydroxylpropan-2-yl)oxy)methyl)phosphonate], in series [1], the “stability in GSH environment relative to 1c” value is “significant enhancement in stability”. For the same molecule, the “micelle formation (TEM)” value in series [3] is reported as “could form micelles”.

For `CCCCCCCCCCCCCCSSCCCCCCOP(=O)(O)CO[C@H](CO)Cn1ccc(N)nc1=O.N` [Compound 1r, 6-(tetradecyldisulfanyl)hexyl hydrogen ((((S)-1-(4-amino-2-oxopyrimidin-1(2H)-yl)-3-hydroxypropan-2-yl)oxy)methyl)phosphonate], the “stability in GSH environment relative to 1c” value in series [1] is “significant enhancement in stability”. Also, in series [3], the “micelle formation (TEM)” value is “could form micelles”.
